These results are taken from publication PMC6756013, “B591, a novel specific pan-PI3K inhibitor, preferentially targets cancer stem cells” (Oncogene, 2019).

Assay [1] has as its system PI3K/Akt signaling in MDA-MB-231 and SUM-159PT cells. In words: Western blot of PI3K/mTOR signaling (Supplementary Fig. S5A). To be noted: 5 h. (In western blotting, separated proteins are transferred to a membrane and probed.)
The test system of assay [2] is MDA-MB-231 and SUM-159PT monolayer and mammosphere cells. In words: Proliferation inhibition of monolayer versus mammosphere cells. It is filed as cell-based, human. As for the experimental part:
The proliferation inhibitory activities of B591 were compared between monolayer and mammosphere cells.
(§1) Cells were treated with indicated agents for 48 h, and cells were harvested and processed for apoptosis assay using the PE-Annexin V/7-AAD Apoptosis Detection Kit. d Representative flow cytometry plots of apoptosis inducing activity of B591 (10 μM) and paclitaxel (10 nM) on monolayer and mammosphere MDA-MB-231 cells. e B591 preferentially targeted CD44^high/CD24^low cells. Cells were treated with B591 or paclitaxel for 2 days. Following a 4-day recovery period, cells were co-stained with CD44 and CD24 antibodies and subjected to FACS analysis. Representative flow cytometry plots show the effect of B591 on CD44^high/CD24^low population in MDA-MB-231 cells in vitro. f B591 decreased mammosphere forming efficiency. Primary MDA-MB-231 mammospheres were treated with B591 or paclitaxel for 48 h. Results of the secondary mammosphere-formation assay are shown. Scale bar represents 40 μm. g B591 decreased the expression of CSC markers in MDA-MB-231 cells. Cells were treated with B591 or paclitaxel for 2 days. […] They label a gated population in plots with axes CD44 and CD24. / Panel E: DMSO is the vehicle control. Its printed value is included all the same.

Assay [3] has the same test system. Briefly: Apoptosis of monolayer versus mammosphere cells (PE-Annexin V/7-AAD). It counts as cell-based, human. To be noted: 48 h. As for the experimental part: as §1
Supplementary Fig. S10. B591 preferentially targets CSCs. […] Following a 4-day recovery period, the expression of CSC markers was analyzed with western blot analysis.

In assay [4] the test system is MDA-MB-231 and SUM-159PT mammospheres. In words: Secondary mammosphere-formation assay. It is filed as cell-based, human. To be noted: primary mammospheres treated 48 h, then passaged. As for the experimental part: Cells were treated with indicated agents for 48 h, and cells were harvested and processed for apoptosis assay using the PE-Annexin V/7-AAD Apoptosis Detection Kit. d Representative flow cytometry plots of apoptosis inducing activity of B591 (10 μM) and paclitaxel (10 nM) on monolayer and mammosphere MDA-MB-231 cells. e B591 preferentially targeted CD44^high/CD24^low cells. Cells were treated with B591 or paclitaxel for 2 days. Following a 4-day recovery period, cells were co-stained with CD44 and CD24 antibodies and subjected to FACS analysis. Representative flow cytometry plots show the effect of B591 on CD44^high/CD24^low population in MDA-MB-231 cells in vitro. f B591 decreased mammosphere forming efficiency. Primary MDA-MB-231 mammospheres were treated with B591 or paclitaxel for 48 h. Results of the secondary mammosphere-formation assay are shown. Scale bar represents 40 μm. g B591 decreased the expression of CSC markers in MDA-MB-231 cells. Cells were treated with B591 or paclitaxel for 2 days. […]
In the mammosphere assay, MDA-MB-231 (Fig. 3f) and SUM-159PT (Supplementary Fig. S10D) cells were treated with B591 or paclitaxel, and the mammospheres were collected and subsequently passaged. Secondary Mammosphere-forming activity was determined, which reflects the self-renewal capability of CSCs. […]

In assay [5] the test system is SUM-159PT cells. In words: Mammosphere formation after paclitaxel pre-treatment. It is filed as cell-based. To be noted: 8 nM Paclitaxel or 8 nM Paclitaxel plus 5 μM B591 for 24 h. As for the experimental part: (§2) Fig. 6 B591 reduces breast tumor metastasis and recurrence. a Representative images show the effect of B591 (8 mg/kg) on lung metastasis of 4T1 cells, and data from six mice were plotted. b SUM-159PT cells were respectively treated with the indicated agents (8 nM Paclitaxel, 8 nM Paclitaxel plus 5 μM B591) for 24 h, the cells were then cultured for mammospheres. Representative images were shown, and data from two independent experiments were plotted. c–f SUM-159PT xenografts (n = 7) were treated with 4 mg/kg Paclitaxel, or 10 mg/kg B591, or both for 2 weeks, then ended the treatment and waited for tumor recurrence. Tumor volume (c) and body weight (d) were measured every 2 days after treatment, and tumors were photographed (e) and weighted (f) at the end of the experiment. ^*p < 0.05, ^**p < 0.01 versus indicated groups
Based on the finding that B591 preferentially targets CSCs, we supposed that by eliminating the breast CSCs, B591 might delay breast tumor recurrence after initial treatment with chemotherapy drugs. Paclitaxel is a first-line chemotherapeutic agent used for breast cancer therapy. SUM-159PT cells were pre-treated with paclitaxel, and then the cells remaining alive were cultured for mammospheres.

The test system of assay [6] is SUM-159PT orthotopic xenografts. In words: Tumor recurrence study in SUM-159PT xenografts. It is filed as in vivo, NOD/SCID mice. To be noted: paclitaxel 4 mg/kg, B591 10 mg/kg, i.p., 2 weeks, then 3 weeks recurrence. As for the experimental part: as §2
In the tumor recurrence study, orthotopic xenografts were established with 5 × 10^6 SUM-159PT cells. When tumor volume reached about 50 mm^3, mice were randomly divided into four groups for treatment with vehicle, 4 mg/kg Paclitaxel, 10 mg/kg B591, and combination of 4 mg/kg Paclitaxel plus 10 mg/kg B591 (i.p.). Treatment was stopped after 2 weeks, and the tumors were allowed for recurrence for 3 weeks. Tumor volume and the body weight of mice were measured during the experiments. In the end of treatment, the mice were killed, and the tumor tissues were dissected and weighted.

The test system of assay [7] is phosphorylation of Akt and ERK in RD cells. In words: Immunoblotting of feedback activation of Akt and ERK. It is filed as cell-based, human. To be noted: up to 24 h, B591 10 μM. As for the experimental part: Fig. 2 B591 inhibits PI3K/Akt pathway in multiple cancer cell lines. a Representative images of Akt1 redistribution in IGF-1-treated cells in the absence or presence of B591. Scale bar represents 10 μm. Arrows indicate IGF-1-mediated membrane translocation detected by the image analysis algorithm. b Inhibition of mTORC1 and mTORC2 signaling in multiple cancer cell lines, exposed for 5 h to increasing concentrations of B591. c HepG2 cells were treated with DMSO or 20 μM of B591 for 5 h. Immunofluorescence (red) intensity reflects eIF4E subcellular distribution. Cells were visualized with high content reader. Representative images are shown, and scale bar represents 50 μm. d Nuclear-to-cytoplasmic ratio of eIF4E in five cancer cell lines was determined via high content reader. e The phosphorylation of AKT and ERK was determined by immunoblotting in RD cells in the presence of 10 μM of B591 after indicated time of exposure. f Inhibition of the phosphorylation of AKT and ERK in RD cells treated with B591, PI-103 or Rapamycin for 24 h was determined by immunoblotting
Despite a significant efficacy in preclinical models, the clinical tumor response to mTORC1 inhibitors, such as rapalogs, is modest. […]

With `Oc1cccc(-c2nc(N3CCOCC3)c3oc4ncccc4c3n2)c1` [PI-103], in assay [1], the “Effect on PI3K/Akt, mTORC1 and mTORC2 signaling” value was “inhibited PI3K downstream mTORC1 and mTORC2 signaling”.

On to `CC(=O)O[C@H]1C(=O)[C@@]2(C)[C@H]([C@H](OC(=O)c3ccccc3)[C@]3(O)C[C@H](OC(=O)[C@H](O)[C@@H](NC(=O)c4ccccc4)c4ccccc4)C(C)=C1C3(C)C)[C@]1(OC(C)=O)CO[C@@H]1C[C@@H]2O` [paclitaxel, reference compound], for which the “Proliferation inhibitory activity, mammosphere versus monolayer cells” value in assay [2] is recorded as “mammosphere cells were resistant”. The “Apoptosis induction, mammosphere versus monolayer populations” value in assay [3] is “induced less apoptosis of mammosphere populations than monolayer populations”. Further, the Secondary mammosphere-forming ability entry in assay [4] is “increased”. In assay [5], the “Formation of mammospheres / paclitaxel-enriched CSCs” value is “increased the formation of mammospheres”. The “Tumor growth and regrowth after end of treatment” value in assay [6] was “induced initial tumor remission, but these tumors regrew quickly after termination of paclitaxel therapy”. In addition, the “Effect on PI3K/Akt, mTORC1 and mTORC2 signaling” value in assay [1] is reported as “did not show any effect”.

Take `CO[C@H]1C[C@@H]2CC[C@@H](C)[C@@](O)(O2)C(=O)C(=O)N2CCCC[C@H]2C(=O)O[C@H]([C@H](C)C[C@@H]2CC[C@@H](O)[C@H](OC)C2)CC(=O)[C@H](C)/C=C(\C)[C@@H](O)[C@@H](OC)C(=O)[C@H](C)C[C@H](C)/C=C/C=C/C=C/1C` [rapamycin, reference compound]: the “Phosphorylation of Akt and ERK” value in assay [7] was “induced a hyper-activation of Akt and increased ERK phosphorylation”.
